Data published in PubChem BioAssay (NCI).
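How tested: cells in 96-well plates exposed to compound for 48 hours at five concentrations. At the GI50, growth is halved. At the TGI there is no net growth.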

Key:
Experiment in all cases: NCI tumour cell line growth inhibition, 48 h
[1] = system: TK-10 renal
[2] = system: EKVX NSCLC
[3] = system: CCRF-CEM leukemia
[4] = system: SW-620 colon
[5] = system: CAKI-1 renal
[6] = system: T-47D breast
[7] = system: KM12 colon
[8] = system: OVCAR-4 ovarian
[9] = system: HOP-92 NSCLC
[10] = system: NCI-H23 lung
[11] = system: DU-145 prostate
[12] = system: HT29 colon
[13] = system: UACC-257 melanoma
[14] = system: HS 578T breast
[15] = system: SK-OV-3 ovarian
[16] = system: PC-3 prostate
[17] = system: UO-31 renal
[18] = system: MOLT-4 leukemia
[19] = system: SF-268 CNS
[20] = system: SF-539 CNS
[21] = system: ACHN renal
[22] = system: NCI-H460 lung
[23] = system: SNB-19 CNS
[24] = system: SNB-75 CNS
[25] = system: OVCAR-5 ovarian
[26] = system: IGROV1 ovarian
[27] = system: HOP-62 NSCLC
[28] = system: HCC-2998 colon
[29] = system: SN12C renal
[30] = system: MDA-MB-435
[31] = system: NCI/ADR-RES ovarian
[32] = system: RXF 393 renal
[33] = system: BT-549 breast
[34] = system: HCT-15 colon
[35] = system: SR leukemia
[36] = system: HCT-116 colon
[37] = system: A498 renal
[38] = system: OVCAR-3 ovarian
[39] = system: SK-MEL-2 melanoma
[40] = system: RPMI-8226 leukemia
[41] = system: M14 melanoma
[42] = system: SK-MEL-28 melanoma
[43] = system: A549 NSCLC
[44] = system: NCI-H226 lung
[45] = system: COLO 205 colon
[46] = system: HL-60(TB) leukemia
[47] = system: SF-295 CNS
[48] = system: NCI-H522 lung
[49] = system: U251 CNS
[50] = system: K-562 leukemia
[51] = system: MDA-MB-231 breast
[52] = system: MALME-3M melanoma
[53] = system: MCF7 breast
[54] = system: 786-0 renal
[55] = system: SK-MEL-5 melanoma

In the case of Cc1cc(C(O)CN(C)C)cc2c1ccc1cc(C(C)C)ccc12 (stereo not given), the GI50 [1] is reported as 1.77 µM, the TGI [1] is reported as 3.36 µM and the GI50 [2] is reported as 3.39 µM. It also gave a TGI [2] of 17.9 µM, a GI50 [3] of 2.48 µM and a TGI [3] of 5.65 µM. It also gave a GI50 [4] of 1.79 µM, a TGI [4] of 3.5 µM and a GI50 [5] of 1.42 µM. It also gave a TGI [5] of 3.11 µM, a GI50 [6] of 2.04 µM and a TGI [6] of 4.48 µM. The GI50 [7] was 1.82 µM, the TGI [7] was 3.32 µM and the GI50 [8] was 2.33 µM. For the same molecule, the TGI [8] was 4.84 µM, the GI50 [9] was 1.83 µM and the TGI [9] was 6.45 µM. The GI50 [10] was 2.85 µM, the TGI [10] was 10.6 µM and the GI50 [11] was 2.19 µM. The TGI [11] was 4.08 µM, the GI50 [12] was 1.56 µM and the TGI [12] was 3.62 µM. For the same molecule, the GI50 [13] was 2.11 µM, the TGI [13] was 3.79 µM and the GI50 [14] was 2.58 µM. It also gave a TGI [14] of 8.92 µM, a GI50 [15] of 4.58 µM and a TGI [15] of 20 µM. The GI50 [16] was 2.24 µM, the TGI [16] was 5.77 µM and the GI50 [17] was 1.58 µM. It also gave a TGI [17] of 3.72 µM, a GI50 [18] of 2.16 µM and a TGI [18] of 5.22 µM. It also gave a GI50 [19] of 2.8 µM, a TGI [19] of 7.73 µM and a GI50 [20] of 1.98 µM. The TGI [20] was 3.59 µM, the GI50 [21] was 1.87 µM and the TGI [21] was 3.65 µM. It also gave a GI50 [22] of 1.74 µM, a TGI [22] of 3.43 µM and a GI50 [23] of 2.07 µM. The TGI [23] was 4.75 µM, the GI50 [24] was 1.72 µM and the TGI [24] was 3.67 µM. It also gave a GI50 [25] of 2.02 µM, a TGI [25] of 4.36 µM and a GI50 [26] of 1.85 µM. For the same molecule, the TGI [26] was 3.8 µM, the GI50 [27] was 1.59 µM and the TGI [27] was 3.08 µM. It also gave a GI50 [28] of 1.57 µM, a TGI [28] of 3.16 µM and a GI50 [29] of 3.19 µM. The TGI [29] was 20.6 µM, the GI50 [30] was 1.79 µM and the TGI [30] was 3.64 µM. It also gave a GI50 [31] of 2.07 µM, a TGI [31] of 5.47 µM and a GI50 [32] of 1.78 µM. It also gave a TGI [32] of 3.36 µM, a GI50 [33] of 5.67 µM and a TGI [33] of 19.5 µM. It also gave a GI50 [34] of 1.81 µM, a TGI [34] of 3.61 µM and a GI50 [35] of 1.96 µM. The TGI [35] was 5.21 µM, the GI50 [36] was 1.8 µM and the TGI [36] was 3.29 µM. For the same molecule, the GI50 [37] was 2.36 µM, the TGI [37] was 11.7 µM and the GI50 [38] was 1.92 µM. For the same molecule, the TGI [38] was 3.6 µM, the GI50 [39] was 2 µM and the TGI [39] was 3.92 µM. For the same molecule, the GI50 [40] was 2.36 µM, the TGI [40] was 5.12 µM and the GI50 [41] was 2.02 µM. The TGI [41] was 4.03 µM, the GI50 [42] was 1.88 µM and the TGI [42] was 3.36 µM. For the same molecule, the GI50 [43] was 1.93 µM, the TGI [43] was 3.54 µM and the GI50 [44] was 2.66 µM. It also gave a TGI [44] of 8.84 µM, a GI50 [45] of 1.73 µM and a TGI [45] of 3.32 µM. For the same molecule, the GI50 [46] was 1.89 µM, the TGI [46] was 4.08 µM and the GI50 [47] was 1.85 µM. It also gave a TGI [47] of 3.54 µM, a GI50 [48] of 1.84 µM and a TGI [48] of 3.72 µM. For the same molecule, the GI50 [49] was 1.92 µM, the TGI [49] was 3.53 µM and the GI50 [50] was 2.15 µM. For the same molecule, the TGI [50] was 4.88 µM, the GI50 [51] was 1.64 µM and the TGI [51] was 3.55 µM. The GI50 [52] was 1.92 µM, the TGI [52] was 3.83 µM and the GI50 [53] was 1.71 µM. It also gave a TGI [53] of 3.19 µM, a GI50 [54] of 1.84 µM and a TGI [54] of 3.4 µM. It also gave a GI50 [55] of 1.76 µM and a TGI [55] of 3.16 µM.
